One test has as its target T1, PopAhis (Bdellovibrio bacteriovorus, UniProt Q6MQN4).
T1 construct: gene Bd0427; mature PopA with internal His tag SSHHHHHHGSS inserted after A103 (loop 2); pelB leader at start; pET29b, E. coli BL21(DE3) RIPL; native folded, DDM-solubilised; homopentamer
Nature of the test: liposome swelling assay (OD400). In kind it is biochemical. To be noted: relative to OmpF with L-arabinose = 100%; pH 7.0 proteoliposomes; passive permeation.

Test [1] addresses PopAhis (mature PopA with an internal His tag in loop 2), natively folded (B. bacteriovorus HD100). As to the kind of experiment: cryo-EM structure; native PopAhis, 0.02 mg/mL in 50 mM Tris pH 8, 150 mM NaCl, 0.03% w/v DDM; 2.85 Å in C1 symmetry, 2.66 Å in C5 symmetry.
The next test deals with T2, PopA (Bd0427; PopAΔSP) (Bdellovibrio bacteriovorus, UniProt Q6MQN4).
T2 construct: aa 21-353, signal peptide removed; selenomethionyl form A phased; homopentamer
T2 sequence (Q6MQN4 entry or part of it, stated change not applied): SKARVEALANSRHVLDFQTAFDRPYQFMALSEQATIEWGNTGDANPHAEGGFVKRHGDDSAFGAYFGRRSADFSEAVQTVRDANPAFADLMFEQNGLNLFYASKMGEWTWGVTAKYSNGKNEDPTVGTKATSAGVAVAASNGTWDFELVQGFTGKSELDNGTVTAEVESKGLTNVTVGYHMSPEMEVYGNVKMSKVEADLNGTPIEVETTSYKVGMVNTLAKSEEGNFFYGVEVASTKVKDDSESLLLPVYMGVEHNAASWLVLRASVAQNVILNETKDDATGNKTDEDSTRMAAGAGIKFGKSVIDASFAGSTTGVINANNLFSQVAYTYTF
Nature of the test: X-ray crystallography (C222_[…] Å). In kind it is binding. To be noted: palmitate modelled in difference density behind loop 2 helix, carboxylate to R88; ligand not added, placed after AlphaFold3 suggestion.

Test [2] deals with PopAΔSP (Bd0427, aa 21-353), refolded (B. bacteriovorus HD100). As to the kind of experiment: crystal structure; refolded PopAΔSP in β-OG detergent; C222(1) crystal form, 2.8 Å; five copies in the asymmetric unit.

T1 sequence (Q6MQN4 entry or part of it): as the sequence (Q6MQN4 entry or part of it, stated change not applied) above

Consider `C[C@H](N)C(=O)O` [alanine], for which, on PopAhis, the relative swelling rate entry is “only able to permit the passage of small substrates, notably glycine and alanine (Fig. 3e)”.
The same measure, in the same setting: next, `NCC(=O)O` [glycine]: “only able to permit the passage of small substrates, notably glycine and alanine (Fig. 3e)”.
Compound “PopAhis (mature PopA with an internal His tag in loop 2), natively folded (natural protein)” returned a stoichiometry N in test [1] of 5.
For `CCCCCCCCCCCCCCCC(=O)O` [palmitate], on PopA (Bd0427; PopAΔSP), the “X-ray crystallography (C222_1, 2.8 Å)” value is “Refinement verified that palmitate fits the density well (Fig. 2h)”.
Regarding “PopAΔSP (Bd0427, aa 21-353), refolded (natural protein)”, the stoichiometry N in test [2] was 5.

In general, stoichiometry N refers to the number of molecules, sites or subunits per partner or assembly.

The values above are taken from PMC12228718, “A porin-like protein used by bacterial predators defines a wider lipid-trapping superfamily” (Nature Communications, 2025).
